# Reference: patent US20210386665A1, “INHALATION POWDER MEDICINE, EVALUATION METHOD THEREOF, AND USE THEREOF” (MEIJO UNIVERSITY EDUCATIONAL FOUNDATION, priority 2018, published 2021)
# Test: Anti-hygroscopic and hygroscopic property by dynamic vapor sorption (DVS)
# Format: physicochemical
# Conditions: raw powders; DVS 37° C., 50 to 95% RH
# Procedure: For each SFD preparation prepared in Example 1 and each raw powder (Leu, Man, Tre, FlNa) in compositions, using a Dynamic Vapor Sorption measuring instrument (DVS: Dynamic Vapor Sorption; DVS advantage, Surface Measurement Systems), anti-hygroscopic property and hygroscopic growth from inhalation to the respiratory tract and deep lungs in high humidity were evaluated.
# By a DVS, the mass change of a sample filled on one side of the balance-type measuring unit due to the adsorption and desorption of water in a set temperature and humidity environment can be monitored on a second scale. Regarding the setting of conditions for moisture absorption growth evaluation, to reproduce the temperature and humidity environment changes until the powder fine particles reach the deep lungs, the environment before inhalation was set to “temperature: 37° C., relative humidity (RH): 50% (absolute humidity: […])” and the lung environment after inhalation was set to “temperature: 37° C., 95% RH (absolute humidity: 41.62 g/m^3)”.
row,mass change rate,Structure (SMILES)
1,about 0.08%,"CC(C)C[C@H](N)C(=O)O [Leu, L-leucine]"
2,~0.29%,"OC[C@@H](O)[C@@H](O)[C@H](O)[C@H](O)CO [Man, D-(−)-mannitol]"
3,~22%,"OC[C@H]1O[C@H](O[C@H]2O[C@H](CO)[C@@H](O)[C@H](O)[C@H]2O)[C@H](O)[C@@H](O)[C@@H]1O [Tre, D-(+)-trehalose]"
